Data reported in ChEMBL document CHEMBL5537172 (J Med Chem, 2024).
The source made the active and inactive calls. The calls are words filed in the database; no cut-off is given here.

Columns and labels:
[1] = target: T1, Receptor-type tyrosine-protein kinase FLT3 (Homo sapiens, UniProt P36888); assay: Inhibition of FLT3 (unknown origin); assay type: toxicity
T1 sequence (P36888 whole entry): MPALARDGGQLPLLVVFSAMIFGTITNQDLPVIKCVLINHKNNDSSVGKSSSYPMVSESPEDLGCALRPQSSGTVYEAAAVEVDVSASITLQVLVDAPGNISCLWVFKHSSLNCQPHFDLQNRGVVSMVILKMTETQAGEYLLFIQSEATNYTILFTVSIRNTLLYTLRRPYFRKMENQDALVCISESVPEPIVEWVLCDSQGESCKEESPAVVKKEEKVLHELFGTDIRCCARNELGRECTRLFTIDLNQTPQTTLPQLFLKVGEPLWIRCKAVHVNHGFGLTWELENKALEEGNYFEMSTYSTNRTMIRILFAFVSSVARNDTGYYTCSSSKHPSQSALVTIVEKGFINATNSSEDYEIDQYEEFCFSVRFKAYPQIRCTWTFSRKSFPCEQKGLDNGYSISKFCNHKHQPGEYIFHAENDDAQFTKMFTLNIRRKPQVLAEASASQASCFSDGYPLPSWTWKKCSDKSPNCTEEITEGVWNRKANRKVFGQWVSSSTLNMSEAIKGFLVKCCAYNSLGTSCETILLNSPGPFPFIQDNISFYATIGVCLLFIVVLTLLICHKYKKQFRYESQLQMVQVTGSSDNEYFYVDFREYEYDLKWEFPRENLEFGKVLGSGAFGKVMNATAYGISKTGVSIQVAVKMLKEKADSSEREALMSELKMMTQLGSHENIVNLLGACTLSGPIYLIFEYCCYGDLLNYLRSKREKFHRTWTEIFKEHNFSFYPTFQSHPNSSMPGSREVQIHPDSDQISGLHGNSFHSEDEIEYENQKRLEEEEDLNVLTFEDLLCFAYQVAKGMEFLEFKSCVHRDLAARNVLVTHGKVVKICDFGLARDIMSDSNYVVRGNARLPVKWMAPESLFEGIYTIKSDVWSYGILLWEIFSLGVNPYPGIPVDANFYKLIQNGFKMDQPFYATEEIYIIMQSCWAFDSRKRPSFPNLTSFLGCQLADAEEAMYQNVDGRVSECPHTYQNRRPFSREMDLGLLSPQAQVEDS

[2] = target: Glycogen synthase kinase-3 beta (Homo sapiens, UniProt P49841); assay: Inhibition of GSK3beta (unknown origin); assay type: toxicity
Sequence of Glycogen synthase kinase-3 beta (P49841 whole entry): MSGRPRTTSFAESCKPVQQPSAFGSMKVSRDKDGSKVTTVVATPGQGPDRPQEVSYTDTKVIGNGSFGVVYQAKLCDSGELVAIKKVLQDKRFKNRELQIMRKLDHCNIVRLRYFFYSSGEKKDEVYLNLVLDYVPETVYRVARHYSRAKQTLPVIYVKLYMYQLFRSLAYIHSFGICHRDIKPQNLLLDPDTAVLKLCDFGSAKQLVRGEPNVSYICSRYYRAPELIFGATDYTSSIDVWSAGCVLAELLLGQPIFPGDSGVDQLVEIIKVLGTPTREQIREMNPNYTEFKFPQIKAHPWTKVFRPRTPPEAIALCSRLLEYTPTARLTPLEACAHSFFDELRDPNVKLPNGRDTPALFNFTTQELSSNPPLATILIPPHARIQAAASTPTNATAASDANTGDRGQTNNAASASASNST

[3] = target: 5-hydroxytryptamine receptor 2B (Homo sapiens, UniProt P41595); assay: Agonist activity at 5HT2B (unknown origin); assay type: toxicity
Sequence of 5-hydroxytryptamine receptor 2B (P41595 whole entry): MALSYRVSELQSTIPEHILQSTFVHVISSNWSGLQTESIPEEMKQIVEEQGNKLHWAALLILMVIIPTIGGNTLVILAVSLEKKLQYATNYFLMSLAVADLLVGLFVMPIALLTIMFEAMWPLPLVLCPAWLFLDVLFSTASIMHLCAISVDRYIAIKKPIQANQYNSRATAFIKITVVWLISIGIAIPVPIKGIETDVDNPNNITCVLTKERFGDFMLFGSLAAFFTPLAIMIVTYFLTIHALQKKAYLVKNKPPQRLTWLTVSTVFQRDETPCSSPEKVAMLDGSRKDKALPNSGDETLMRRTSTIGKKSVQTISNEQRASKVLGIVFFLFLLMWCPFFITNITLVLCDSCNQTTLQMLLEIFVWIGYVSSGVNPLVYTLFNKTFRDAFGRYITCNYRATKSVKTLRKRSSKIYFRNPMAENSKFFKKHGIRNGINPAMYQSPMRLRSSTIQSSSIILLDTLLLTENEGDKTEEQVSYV

[4] = cells; settings: Homo sapiens, 92-1, 72 h
[5] = test system: 92-1; assay: Antitumor activity against human 92-1 cells xenografted in mouse assessed as tumor suppression at 100 mg/kg, qd; assay type: functional, organism-based
[6] = Toxicity in mouse xenografted with human 92-1 cells assessed as abdominal distention at 100 mg/kg, qd after 1 week; assay type: organism-based; settings: in vivo, 168 h, time 1 weeks
[7] = Toxicity in mouse xenografted with human 92-1 cells assessed as body weight loss at 100 mg/kg, qd measured upto 15 days; assay type: organism-based; settings: in vivo, 360 h, time < 15 day
[8] = Toxicity in mouse xenografted with human 92-1 cells assessed as enlarged GI track at 100 mg/kg, qd measured upto 15 days; assay type: organism-based; settings: in vivo, 360 h, time < 15 day
[9] = Dissociation constant, pKa of compound; assay type: physicochemical
[10] = target: T2, Protein kinase C theta type (Homo sapiens, UniProt Q04759); assay: Inhibition of PKCtheta (unknown origin) incubated for 15 mins in presence of 33P-ATP by Topcount scintillation counting method
T2 sequence (Q04759 whole entry): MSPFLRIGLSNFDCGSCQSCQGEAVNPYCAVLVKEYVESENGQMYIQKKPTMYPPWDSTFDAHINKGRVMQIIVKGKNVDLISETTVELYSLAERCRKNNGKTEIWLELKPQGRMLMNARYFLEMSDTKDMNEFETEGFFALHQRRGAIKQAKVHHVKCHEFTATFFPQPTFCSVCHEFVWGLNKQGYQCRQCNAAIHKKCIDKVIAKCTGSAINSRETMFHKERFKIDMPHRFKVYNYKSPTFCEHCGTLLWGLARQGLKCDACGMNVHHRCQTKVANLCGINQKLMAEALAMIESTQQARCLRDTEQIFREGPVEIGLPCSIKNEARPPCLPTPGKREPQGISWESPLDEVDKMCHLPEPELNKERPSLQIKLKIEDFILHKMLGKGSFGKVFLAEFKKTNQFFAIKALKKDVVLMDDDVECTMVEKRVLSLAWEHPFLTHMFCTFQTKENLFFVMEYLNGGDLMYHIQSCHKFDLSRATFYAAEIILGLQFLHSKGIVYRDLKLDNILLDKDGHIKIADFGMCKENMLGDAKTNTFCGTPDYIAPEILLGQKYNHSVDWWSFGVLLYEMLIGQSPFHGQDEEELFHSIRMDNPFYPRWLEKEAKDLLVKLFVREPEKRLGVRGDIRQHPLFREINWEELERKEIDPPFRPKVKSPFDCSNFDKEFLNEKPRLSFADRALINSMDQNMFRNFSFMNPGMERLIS

[11] = test system: 92-1; assay: Antitumor activity against human 92-1 cells xenografted in mouse assessed as tumor suppression at 120 mg/kg, bid; assay type: functional, organism-based
[12] = target: Protein kinase C eta type (Homo sapiens, UniProt P24723); assay: Inhibition of PKCeta (unknown origin)
Sequence of Protein kinase C eta type (P24723 whole entry): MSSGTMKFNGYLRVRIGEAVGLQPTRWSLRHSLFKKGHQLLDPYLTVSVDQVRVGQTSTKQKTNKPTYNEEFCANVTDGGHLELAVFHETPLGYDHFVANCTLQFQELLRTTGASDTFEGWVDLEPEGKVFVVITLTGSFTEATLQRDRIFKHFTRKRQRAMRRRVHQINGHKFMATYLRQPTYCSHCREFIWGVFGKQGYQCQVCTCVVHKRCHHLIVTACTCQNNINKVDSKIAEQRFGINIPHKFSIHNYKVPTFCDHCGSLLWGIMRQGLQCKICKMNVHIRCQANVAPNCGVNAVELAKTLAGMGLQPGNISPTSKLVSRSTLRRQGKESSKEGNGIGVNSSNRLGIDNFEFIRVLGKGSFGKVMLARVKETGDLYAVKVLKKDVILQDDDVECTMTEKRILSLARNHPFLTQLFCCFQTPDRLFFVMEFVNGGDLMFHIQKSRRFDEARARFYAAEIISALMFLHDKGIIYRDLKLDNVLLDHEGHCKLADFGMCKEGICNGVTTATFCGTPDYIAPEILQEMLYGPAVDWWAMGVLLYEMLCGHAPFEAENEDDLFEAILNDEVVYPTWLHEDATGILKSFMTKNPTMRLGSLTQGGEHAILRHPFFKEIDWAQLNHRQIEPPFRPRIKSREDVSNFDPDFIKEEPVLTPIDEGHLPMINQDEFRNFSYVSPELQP

[13] = target: Protein kinase C gamma type (Homo sapiens, UniProt P05129); assay: Inhibition of PKCgamma (unknown origin)
[14] = target: Protein kinase C delta type (Homo sapiens, UniProt Q05655); assay: Inhibition of PKCdelta (unknown origin)
Sequence of Protein kinase C delta type (Q05655 whole entry): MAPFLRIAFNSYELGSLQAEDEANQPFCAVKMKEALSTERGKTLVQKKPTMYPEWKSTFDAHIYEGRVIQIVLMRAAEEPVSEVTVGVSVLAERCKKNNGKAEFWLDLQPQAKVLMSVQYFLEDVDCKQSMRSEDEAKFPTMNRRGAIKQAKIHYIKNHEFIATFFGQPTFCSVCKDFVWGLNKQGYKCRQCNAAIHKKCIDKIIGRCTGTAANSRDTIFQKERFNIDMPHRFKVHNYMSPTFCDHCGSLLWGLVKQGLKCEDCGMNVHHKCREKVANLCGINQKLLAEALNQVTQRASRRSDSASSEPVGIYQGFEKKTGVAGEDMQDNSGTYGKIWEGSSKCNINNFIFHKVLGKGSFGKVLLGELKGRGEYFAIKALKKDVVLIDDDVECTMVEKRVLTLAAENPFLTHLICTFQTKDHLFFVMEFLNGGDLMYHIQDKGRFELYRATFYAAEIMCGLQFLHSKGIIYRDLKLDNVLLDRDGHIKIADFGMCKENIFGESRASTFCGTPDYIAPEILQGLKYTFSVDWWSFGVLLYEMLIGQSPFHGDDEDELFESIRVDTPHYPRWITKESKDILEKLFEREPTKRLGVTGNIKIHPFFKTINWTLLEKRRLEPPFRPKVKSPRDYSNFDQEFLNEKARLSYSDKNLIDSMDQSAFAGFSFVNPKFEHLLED

[15] = target: T3, Protein kinase C epsilon type (Homo sapiens, UniProt Q02156); assay: Inhibition of PKCepsilon (unknown origin)
T3 sequence (Q02156 whole entry): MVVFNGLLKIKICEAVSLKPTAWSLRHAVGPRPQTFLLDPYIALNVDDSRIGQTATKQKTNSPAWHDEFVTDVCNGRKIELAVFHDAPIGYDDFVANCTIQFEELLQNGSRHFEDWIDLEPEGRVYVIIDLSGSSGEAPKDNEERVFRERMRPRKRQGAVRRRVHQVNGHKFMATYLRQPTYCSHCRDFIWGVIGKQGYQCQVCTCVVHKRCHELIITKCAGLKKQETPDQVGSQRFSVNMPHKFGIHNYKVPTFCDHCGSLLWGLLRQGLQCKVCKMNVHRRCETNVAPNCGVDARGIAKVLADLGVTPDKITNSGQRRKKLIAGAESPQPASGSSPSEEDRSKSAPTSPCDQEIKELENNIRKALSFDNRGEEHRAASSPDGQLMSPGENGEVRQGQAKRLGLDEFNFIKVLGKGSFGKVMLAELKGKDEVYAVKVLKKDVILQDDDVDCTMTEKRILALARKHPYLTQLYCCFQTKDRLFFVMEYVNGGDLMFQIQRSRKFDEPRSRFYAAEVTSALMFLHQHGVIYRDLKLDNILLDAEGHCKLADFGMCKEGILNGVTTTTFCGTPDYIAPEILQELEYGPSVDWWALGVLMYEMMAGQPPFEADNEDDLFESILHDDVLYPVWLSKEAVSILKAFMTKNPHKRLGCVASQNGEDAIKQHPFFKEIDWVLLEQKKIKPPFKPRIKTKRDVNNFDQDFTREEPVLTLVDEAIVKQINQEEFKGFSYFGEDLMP

[16] = target: T2, Protein kinase C theta type; assay: Inhibition of PKCtheta (unknown origin)
[17] = test system: SK-MEL-28; assay: cells; settings: Homo sapiens
[18] = target: Protein kinase C alpha type (Homo sapiens, UniProt P17252); assay: Inhibition of PKCalpha (unknown origin) incubated for 15 mins in presence of 33P-ATP by Topcount scintillation counting method

Work on Nc1ncc(-c2cccc3[nH]ccc23)nc1C(=O)Nc1ncccc1N1CCC(N)CC1 yielded an IC50 [1] of 0.033 µM, an IC50 [2] of 0.019 µM and an EC50 [3] of 0.78 µM. The EC50 [4] was 0.011 µM.
For Nc1ncc(-c2ncccc2OC(F)(F)F)nc1C(=O)Nc1cnccc1N1CCC(N)CC1, the IC50 [1] was 0.23 µM, the IC50 [2] was 0.01 µM and the Activity [5] was “Active”. For the same molecule, the Activity [6] was “Toxic”, the Activity [7] was “Toxic” and the Activity [8] was “Toxic”. For the same molecule, the EC50 [4] was 0.036 µM.
Molecule Nc1ncc(-c2cccc3[nH]ncc23)nc1C(=O)Nc1ncccc1N1CCC(N)CC1 has an IC50 [1] of 0.031 µM and an IC50 [2] of 0.041 µM.
Work on Nc1ncc(-c2ncccc2OC(F)(F)F)nc1C(=O)Nc1ncccc1N1CCC(N)CC1 yielded an IC50 [1] of 8.46 µM, an EC50 [3] of 0.2 µM and a pKa [9] of 8.9. For the same molecule, the EC50 [4] was 0.18 µM.
For CN1CCN(c2nc(C3=C(c4c[nH]c5ccccc45)C(=O)NC3=O)c3ccccc3n2)CC1 [SOTRASTAURIN], the IC50 [10] was 0.0003 µM, the Activity [11] was “Active” and the IC50 [12] was 0.0059 µM. It also gave an IC50 [13] of 0.064 µM, an IC50 [14] of 0.006 µM and an IC50 [15] of 0.0054 µM. The IC50 [16] was 0.0021 µM, the IC50 [4] was 0.25 µM and the IC50 [17] was > 10 µM.
With Nc1ncc(-c2nc(N3CCOCC3)cc3ccccc23)nc1C(=O)Nc1ncccc1N1CCC(N)CC1 the EC50 [3] was 0.16 µM and the EC50 [4] was 0.022 µM.
Nc1ncc(-c2ncccc2C(F)(F)F)nc1C(=O)Nc1ncccc1N1CCC(N)CC1 gave an IC50 [1] of 8.7 µM and an EC50 [3] of 0.16 µM.
In the case of Nc1ncc(-c2ncccc2OC(F)(F)F)nc1C(=O)Nc1ncccc1N1CCC(N)C(F)C1 (stereo not drawn), the EC50 [3] is reported as 0.043 µM, the pKa [9] is reported as 7.6 and the EC50 [4] is reported as 0.153 µM.
With COC1CN(c2cccnc2NC(=O)c2nc(-c3ncccc3OC(F)(F)F)cnc2N)CCC1N (trans isomer) the EC50 [3] was > 30 µM, the pKa [9] was 8 and the EC50 [4] was 2.8 µM.
Nc1ncc(-c2ncnc3sccc23)nc1C(=O)Nc1ncccc1N1CCC(N)CC1 showed an IC50 [1] of 4.1 µM and an IC50 [2] of 0.71 µM.
Nc1ncc(-c2nc(N3CCOCC3)ccc2C(F)(F)F)nc1C(=O)Nc1ncccc1N1CCC(N)CC1 gave an IC50 [1] of 0.23 µM and an EC50 [3] of 0.15 µM.
In the case of Nc1ncc(-c2ncccc2C(F)(F)F)nc1C(=O)Nc1cccnc1N1CCC(N)CC1, the IC50 [18] is reported as 0.043 µM, the IC50 [10] is reported as 0.069 µM and the IC50 [1] is reported as 3 µM. For the same molecule, the IC50 [2] was 6.9 µM and the EC50 [4] was 3.66 µM.
For CNc1ncc(-c2ncccc2OC(F)(F)F)nc1C(=O)Nc1cnccc1N1CCC(N)CC1, the Activity [6] was “Non-Toxic”, the Activity [7] was “Non-Toxic” and the Activity [8] was “Non-Toxic”. For the same molecule, the IC50 [4] was 3.7 µM.
For Nc1ncc(-c2ncccc2OC(F)(F)F)nc1C(=O)Nc1ccncc1N1CCC(N)CC1, the IC50 [18] was 0.0004 µM, the IC50 [10] was 0.0013 µM and the IC50 [1] was 0.03 µM. It also gave an IC50 [2] of 0.53 µM and an EC50 [4] of 0.23 µM.
For Nc1ncc(-c2ncccc2F)nc1C(=O)Nc1ncccc1N1CCC(N)CC1, the EC50 [3] was 0.041 µM.
With Nc1ncc(-c2ncccc2C(F)(F)F)nc1C(=O)Nc1ncccc1N1C[C@H]2CC[C@@H](C1)[C@@H]2N the IC50 [18] was 0.01 µM, the IC50 [10] was 0.003 µM and the EC50 [3] was > 30 µM. It also gave a pKa [9] of 9.4 and an EC50 [4] of 1.39 µM.
In the case of Nc1ncc(-c2nc(N3CCC3)ccc2C(F)(F)F)nc1C(=O)Nc1ncccc1N1CCC(N)CC1, the IC50 [1] is reported as 0.14 µM and the IC50 [2] is reported as 2.9 µM.
CN(C)c1ccc(C(F)(F)F)c(-c2cnc(N)c(C(=O)Nc3ncccc3N3CCC(N)CC3)n2)n1 showed an IC50 [1] of 0.095 µM, an IC50 [2] of 2.7 µM and an EC50 [4] of 0.066 µM.
In the case of Nc1ncc(-c2ncccc2OC(F)(F)F)nc1C(=O)Nc1ncccc1N1CCC(N)C(F)(F)C1 (stereo not drawn), the IC50 [18] is reported as 0.011 µM, the IC50 [10] is reported as 0.01 µM and the EC50 [3] is reported as 2 µM. The pKa [9] was 6 and the EC50 [4] was 1.74 µM.
With CO[C@H]1CN(c2ccncc2NC(=O)c2nc(-c3ncccc3OC(F)(F)F)cnc2N)CC[C@@H]1N the IC50 [18] was 0.0002 µM, the IC50 [10] was 0.002 µM and the IC50 [4] was 0.14 µM.
